Reference: article PMC8815882, “Screening the pandemic response box identified benzimidazole carbamates, Olorofim and ravuconazole as promising drug candidates for the treatment of eumycetoma” (PLoS Neglected Tropical Diseases, 2022)
Where two headings read alike, the source gives them in different places.

Tested on: M. mycetomatis genome strain MM55
Assay: CLSI M38-A2 based in vitro susceptibility screening (XTT or resazurin), growth at fixed concentration
Type: cell-based, Madurella mycetomatis
Conditions: Madurella mycetomatis; for Percent fungal survival at 100 µM: replicate 2, M. mycetomatis MM55, read-out: Percentage survival at 100um, 100 uM A (second replicate column)
[1] = mean of three, M. mycetomatis MM55, read-out: Percentage survival at 25um, 25 uM mean
[2] = replicate A, M. mycetomatis MM55, read-out: Percentage survival at 25um, 25 um A
[3] = replicate B, M. mycetomatis MM55, read-out: Percentage survival at 25um, 25 uM B
[4] = replicate C, M. mycetomatis MM55, read-out: Percentage survival at 25um, 25 uM C
[5] = mean of three, M. mycetomatis MM55, read-out: Percentage survival at 100um, 100 uM mean
[6] = replicate 1, M. mycetomatis MM55, read-out: Percentage survival at 100um, 100 uM A (first replicate column)
[7] = replicate 3, M. mycetomatis MM55, read-out: Percentage survival at 100um, 100 uM A (third replicate column)
[8] = mean of replicates, read-out: Percentage survival at 25um, 25 uM mean
[9] = replicate A, read-out: Percentage survival at 25um, 25 um A
[10] = replicate B, read-out: Percentage survival at 25um, 25 uM B
[11] = replicate C, read-out: Percentage survival at 25um, 25 uM C
[12] = mean of replicates, read-out: Percentage survival at 100um, 100 uM mean
[13] = replicate 1, read-out: Percentage survival at 100um, 100 uM A
[14] = replicate 2, read-out: Percentage survival at 100um, 100 uM A
[15] = replicate 3, read-out: Percentage survival at 100um, 100 uM A

| SMILES | activity at 25 µM [1] [%] | activity at 25 µM [2] [%] | activity at 25 µM [3] [%] | activity at 25 µM [4] [%] | activity at 100 µM [5] [%] | activity at 100 µM [6] [%] | Percent fungal survival at 100 µM [%] | activity at 100 µM [7] [%] | activity at 25 µM [8] [%] | activity at 25 µM [9] [%] | activity at 25 µM [10] [%] | activity at 25 µM [11] [%] | activity at 100 µM [12] [%] | activity at 100 µM [13] [%] | activity at 100 µM [14] [%] | activity at 100 µM [15] [%] | further results |
| --- | --- | --- | --- | --- | --- | --- | --- | --- | --- | --- | --- | --- | --- | --- | --- | --- | --- |
| O=C(NCc1ccccc1Cl)c1cnc2ccccc2n1 [MMV1230557] | 56.8 | 50.8 | 54.2 | 65.3 | 67.2 | 41.9 | 71.7 | 88.1 | – | – | – | – | – | – | – | – | – |
| O=C(NCc1ccc2c3c(cccc13)C(=O)N2)c1cccs1 [MMV1341773] | – | – | – | – | – | – | – | – | 75.4 | 79.8 | 76.7 | 69.6 | 76.2 | 75.7 | 74 | 78.8 | – |
| COc1c(F)c(F)cc2c(=O)c(C(=O)O)cn(C3CC3)c12 [MMV1480967] | – | – | – | – | – | – | – | – | 104 | 87.1 | 91 | 135 | 77.9 | 85.8 | 67.1 | 80.8 | – |
| COc1ccc(NC(=O)CC2Sc3ncnn3C2=O)cc1 (stereo not shown) [MMV1483032] | 78.4 | 82.6 | 81.9 | 70.7 | 36 | -1.84 | 1.55 | 108 | – | – | – | – | – | – | – | – | – |
| CC1(C)Cc2c(C#N)c(SCCc3ccccc3)nc(N3CCOCC3)c2CO1 [MMV1549626] | 62.3 | 67.7 | 59.1 | 60.3 | 87.3 | 92.1 | 105 | 65.1 | – | – | – | – | – | – | – | – | – |
| CC[C@H](NC(=O)[C@H](C)NC)C(=O)N1C[C@@H](O)C[C@H]1Cc1c(-c2[nH]c3cc(F)ccc3c2C[C@@H]2C[C@H](O)CN2C(=O)[C@H](CC)NC(=O)[C@H](C)NC)[nH]c2cc(F)ccc12 [MMV1557856] | – | – | – | – | – | – | – | – | – | – | – | – | – | – | – | – | activity at 25 µM (mean of replicates, MM55, read-out: Percentage survival at 25um, 25 uM mean): 83.4%; activity at 25 µM (replicate A, MM55, read-out: Percentage survival at 25um, 25 um A): 88.1%; activity at 25 µM (replicate B, MM55, read-out: Percentage survival at 25um, 25 uM B): 92.5%; activity at 25 µM (replicate C, MM55, read-out: Percentage survival at 25um, 25 uM C): 69.7%; activity at 100 µM (mean of replicates, MM55, read-out: Percentage survival at 100um, 100 uM mean): 68.8%; activity at 100 µM (replicate 1, MM55, read-out: Percentage survival at 100um, 100 uM A): 72.6%; activity at 100 µM (replicate 2, MM55, read-out: Percentage survival at 100um, 100 uM A): 66.6%; activity at 100 µM (replicate 3, MM55, read-out: Percentage survival at 100um, 100 uM A): 67.1% |
| O=C1NC(=O)C(Br)=C1Br [MMV1578554] | – | – | – | – | – | – | – | – | 76.9 | 80.1 | 86.3 | 64.3 | 43.3 | -3.69 | 60.2 | 73.5 | – |
| O=C(Nc1ccc(F)cc1)c1nn(-c2ccccc2)c(=O)cc1Cl [MMV1578555] | – | – | – | – | – | – | – | – | 76.7 | 84.2 | 79.1 | 66.7 | 1.51 | 0.758 | 0.453 | 3.31 | – |
| C[C@H]1CC[C@@]2(O)C(C)(C)[C@@H]3CC[C@@]2(C)[C@H]1C3 [MMV1578556] | 75.9 | 69.5 | 83.8 | 74.3 | 84.9 | 79.8 | 92.6 | 82.4 | – | – | – | – | – | – | – | – | – |
| Cc1c(N)cccc1Cn1ccc(OCCc2cccs2)cc1=O [MMV1578557] | 79.8 | 82.2 | 84.5 | 72.6 | 78.3 | 73 | 81.9 | 80 | – | – | – | – | – | – | – | – | – |
| CCc1oc2ccccc2c1C(=O)c1ccc(O)cc1 [MMV1578558] | – | – | – | – | – | – | – | – | 91.9 | 95.8 | 97 | 82.9 | 2.03 | -1.97 | 6.39 | 1.66 | – |
